In the supplement of paper PMC9938120:

How the values were obtained:
Assay in all cases: drug sensitivity score (DSS3, normalised partial AUC of % inhibition dose-response) (DSS (score)); higher = more sensitive (stronger inhibition of viability); extreme values may be limits of the assay
FMOC24 = patient-derived high-grade serous ovarian cancer cells; settings: 72 h; library: FO5A; assay format: 2D, 384-well, CellTiter-Glo
How it was run: (§1)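 Patient-derived ovarian cancer cells (early passage, under 10) were dispensed onto 384-well flat clear-bottom plates pre-plated with compounds at five concentrations covering a 10,000-fold range. Plates were incubated 72 h at 37 °C, 5% CO2, and viability was read with CellTiter-Glo. Data were processed in Breeze. The drug sensitivity score (DSS3) is a partial area under the percent-inhibition dose-response curve, divided by the log of the upper asymptote; higher means more sensitive.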

FMOC06 = patient-derived mucinous ovarian cancer cells; settings: 72 h; library: FO5A; assay format: 2D, 384-well, CellTiter-Glo
How it was run: as §1

FMOC14 = patient-derived high-grade serous ovarian cancer cells; settings: 72 h; library: FO5A; assay format: 2D, 384-well, CellTiter-Glo
How it was run: as §1

FMOC03 = patient-derived mucinous ovarian cancer cells; settings: 72 h; library: FO5A; assay format: 2D, 384-well, CellTiter-Glo
How it was run: as §1

FMOC22 = patient-derived mucinous ovarian cancer cells; settings: 72 h; library: FO5A; assay format: 2D, 384-well, CellTiter-Glo
How it was run: as §1

FMOC02_3 = patient-derived low-grade serous ovarian cancer cells; settings: 72 h; library: FO5A; assay format: 2D, 384-well, CellTiter-Glo
How it was run: as §1

FMOC25_1 = patient-derived low-grade serous ovarian cancer cells; settings: 72 h; library: FO4B; assay format: 2D, 384-well, CellTiter-Glo
How it was run: as §1

FMOC02_2 = patient-derived low-grade serous ovarian cancer cells; settings: 72 h; library: FO5A; assay format: 2D, 384-well, CellTiter-Glo
How it was run: as §1

FMOC25_2 = patient-derived low-grade serous ovarian cancer cells; settings: 72 h; library: FO5A; assay format: 2D, 384-well, CellTiter-Glo
How it was run: as §1

FMOC09 = patient-derived high-grade serous ovarian cancer cells; settings: 72 h; library: FO5A; assay format: 2D, 384-well, CellTiter-Glo
How it was run: as §1

SMILES	drug sensitivity score (FMOC24)	drug sensitivity score (FMOC06)	drug sensitivity score (FMOC14)	drug sensitivity score (FMOC03)	drug sensitivity score (FMOC22)	drug sensitivity score (FMOC02_3)	drug sensitivity score (FMOC25_1)	drug sensitivity score (FMOC02_2)	drug sensitivity score (FMOC25_2)	drug sensitivity score (FMOC09)
COc1cc([C@@H]2c3cc4c(cc3[C@@H](O[C@@H]3O[C@@H]5CO[C@@H](C)O[C@H]5[C@H](O)[C@H]3O)[C@H]3COC(=O)[C@H]23)OCO4)cc(OC)c1O [Etoposide]	1.9	3.5	1.7	1.7	6.1	2.7	2.8	1.4	2.9	5.6
COc1cc2ncnc(Nc3ccc(F)c(Cl)c3)c2cc1OCCCN1CCOCC1 [Gefitinib]	5.8	5.4	6.6	16.2	1.5	15.1	9.8	17.3	16.5	10.9
Cc1cc(Nc2cc(N3CCN(C)CC3)nc(/C=C/c3ccccc3)n2)n[nH]1 [ENMD-2076]	4.95	6.7	5.2	6.2	4.1	13.7	6.1	11.5	10.5	8.6
Cc1cc(Nc2cc(N3CCN(C)CC3)nc(Sc3ccc(NC(=O)C4CC4)cc3)n2)n[nH]1 [Tozasertib]	0.65	3.5	0.6	2.2	2.9	5.7	2.6	5	3.6	4.7
O=C(/C=C/c1cccc(S(=O)(=O)Nc2ccccc2)c1)NO [Belinostat]	11.4	11.9	16	13.6	9.9	10.3	10.8	12.3	10.5	6.4
COc1cccc2c1C(=O)c1c(O)c3c(c(O)c1C2=O)C[C@@](O)(C(C)=O)C[C@@H]3O[C@H]1C[C@H](N)[C@H](O)[C@H](C)O1 [Daunorubicin]	7.6	6.4	5.8	4.6	4.9	9.7	10.1	6.7	7.7	6.4
COc1cc(Nc2c(C#N)cnc3cc(OCCCN4CCN(C)CC4)c(OC)cc23)c(Cl)cc1Cl [Bosutinib]	7.55	5.2	6.6	9.3	6.4	14.1	3.7	14.6	13.2	9.2
O=C1c2c(O)ccc(O)c2C(=O)c2c(NCCNCCO)ccc(NCCNCCO)c21 [Mitoxantrone]	3.45	1.9	3.2	2.7	6	5.9	0.3	4	7	8.8
CC(C)(C)C[C@@H]1N[C@@H](C(=O)N[C@H]2CC[C@H](O)CC2)[C@H](c2cccc(Cl)c2F)[C@]12C(=O)Nc1cc(Cl)ccc12	3.4	3.3	1.6	3.1	3.5	17.9	9.9	10.3	8.4	1.6
COc1ccccc1S(=O)(=O)Nc1ccc2c(c1)CN(C)C(=O)N2 [PFI-1]	3.2	3.6	1.2	2.9	3.6	7.1	1.1	5.3	5.7	3.2
Cn1cc(CNCC2CCN(c3ncc(C(=O)NO)cn3)CC2)c2ccccc21 [Quisinostat]	13.6	9.4	10.7	10.3	8.1	10.8	9.9	10.9	11.2	4.8
O=C(Nc1ccncc1)C(=O)c1cn(Cc2ccc(Cl)cc2)c2ccccc12 [Indibulin]	6	1.3	0	4.3	3.4	9.6	5.5	10.9	9.2	4.7
CC1(C)CCC(c2ccc(Cl)cc2)=C(CN2CCN(c3ccc(C(=O)NS(=O)(=O)c4ccc(N[C@H](CCN5CCOCC5)CSc5ccccc5)c(S(=O)(=O)C(F)(F)F)c4)cc3)CC2)C1 [Navitoclax]	21.1	6.6	7.3	6.9	4.8	21.9	14.7	21.7	23.2	0
Nc1cc(C(F)(F)F)c(-c2cc(N3CCOCC3)nc(N3CCOCC3)n2)cn1 [Buparlisib]	2.25	8.7	4.2	8.6	6.3	13.3	11.5	11.7	10.8	6.7
O=C(CCCCCCC(=O)Nc1ccccc1)NO [Vorinostat]	10.1	7.4	6.8	5.5	4.6	7.7	5.5	9.8	8.5	3.1
Nc1ncnc2c1nc(N)n2[C@@H]1O[C@H](CO)[C@@H](O)[C@H]1O [8-amino-adenosine]	18.8	20.3	16	18.3	18.6	21.7	20.5	27.5	18.6	20.2
C=CC(=O)Nc1cccc(Nc2nc(Nc3ccc(N4CCN(C(C)=O)CC4)cc3OC)ncc2C(F)(F)F)c1 [Rociletinib]	2.45	6.7	5.2	8.7	5.2	11.7	9.2	12.4	9.4	8.4
CC(=O)O[C@@]12CO[C@@H]1C[C@H](O)[C@@]1(C)C(=O)[C@H](O)C3=C(C)[C@@H](OC(=O)[C@H](O)[C@@H](NC(=O)OC(C)(C)C)c4ccccc4)C[C@@](O)([C@@H](OC(=O)c4ccccc4)[C@H]21)C3(C)C [Docetaxel]	0.6	9.1	0	11.7	12.4	15.5	12.1	10.8	15.5	13.9
CO[C@H]1C[C@@H]2CC[C@@H](C)[C@@](O)(O2)C(=O)C(=O)N2CCCC[C@H]2C(=O)O[C@H]([C@H](C)C[C@@H]2CC[C@@H](OC(=O)C(C)(CO)CO)[C@H](OC)C2)CC(=O)[C@H](C)/C=C(\C)[C@@H](O)[C@@H](OC)C(=O)[C@H](C)C[C@H](C)/C=C/C=C/C=C/1C [Temsirolimus]	0.5	2.5	8.9	5.6	9.7	16.5	13.6	9.5	13.1	3.5
O=c1[nH]c(=O)n([C@H]2C[C@H](O)[C@@H](CO)O2)cc1F [Floxuridine]	0	0.8	0.8	4.1	9.3	2.3	0.5	2.6	3.8	2.2
Nc1ccccc1NC(=O)c1ccc(CNc2nccc(-c3cccnc3)n2)cc1 [Mocetinostat]	11.4	10.9	10.1	11.1	8	11.2	9.6	12.6	9.2	3.7
O=C(Nc1cccc(NC(=O)c2cccc(O)c2O)c1)c1cccc(O)c1O [MST-312]	5.55	5.7	8.2	6.2	10.1	7.7	4.5	2.7	2.4	9.7
CC(C)(C)c1cnc(CSc2cnc(NC(=O)C3CCNCC3)s2)o1 [SNS-032]	17.9	23.2	17.9	17.4	12	25.5	20.8	19.4	25.4	11.6
COc1cccc(OCCCN)c1-c1cc(Nc2cnc(C#N)cn2)n[nH]1 [Prexasertib]	24.7	12.6	22.6	11.8	19.6	18.6	15.3	15.1	19.1	19.5
NC(=O)N1CCC(CC(=O)N2CCC([C@H]3c4ncc(Br)cc4CCc4cc(Cl)cc(Br)c43)CC2)CC1 [Lonafarnib]	7.5	12.1	10.3	9.8	15.1	0	2.7	6.6	9.8	7
CS(=O)(=O)N1CCN(Cc2cc3nc(-c4cccc5[nH]ncc45)nc(N4CCOCC4)c3s2)CC1 [Pictilisib]	5.35	10.6	9.2	9.4	5.1	16.1	12.9	16.8	14.3	11.9
CC(=O)Nc1cccc(-n2c(=O)n(C3CC3)c(=O)c3c(Nc4ccc(I)cc4F)n(C)c(=O)c(C)c32)c1 [Trametinib]	0	15.9	0.9	16.6	11.6	14	12.4	15.1	12	9.9
C1=N/C2=N/c3ccc(OCCN4CCCC4)c(c3)COC/C=C/COCc3cccc(c3)C(=C1)N2 [Pacritinib]	7.95	7.6	5.2	6.7	6.2	15.2	7.8	10.1	15.2	5.5
CC(C)NC[C@@H](C(=O)N1CCN(c2ncnc3c2[C@H](C)C[C@H]3O)CC1)c1ccc(Cl)cc1 [Ipatasertib]	3	4	2.8	1	2.1	14.3	7	7.8	7.4	0.1
